For 85 compounds, IC50 results are on record in PubChem BioAssay AID1645868 (Buhrlage Lab, Dana-Farber Cancer Institute and Novartis …, 2021).

For this assay, the target named is OTU domain-containing protein 3 (Homo sapiens) (UniProt Q5T2D3). Briefly: Validation of screening hits, potency titration, in vitro enzymatic, OTU domain-containing protein 3 DUB inhibitors (AID 1645868). Conditions: purified OTUD3, ubiquitin-rhodamine cleavage fluorescence, 2 h.

Molecules are shown by their SMILES. Activity calls are given as the source filed them.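 Rule for the calls: active = maximal percent inhibition of the deubiquitinase OTUD3 of at least 30% across the tested doses; inactive = the rest.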 Bounds are passed on as bounds.

Chain of OTU domain-containing protein 3 (Homo sapiens) (Q5T2D3 whole entry, looked up, the tested form may be a part): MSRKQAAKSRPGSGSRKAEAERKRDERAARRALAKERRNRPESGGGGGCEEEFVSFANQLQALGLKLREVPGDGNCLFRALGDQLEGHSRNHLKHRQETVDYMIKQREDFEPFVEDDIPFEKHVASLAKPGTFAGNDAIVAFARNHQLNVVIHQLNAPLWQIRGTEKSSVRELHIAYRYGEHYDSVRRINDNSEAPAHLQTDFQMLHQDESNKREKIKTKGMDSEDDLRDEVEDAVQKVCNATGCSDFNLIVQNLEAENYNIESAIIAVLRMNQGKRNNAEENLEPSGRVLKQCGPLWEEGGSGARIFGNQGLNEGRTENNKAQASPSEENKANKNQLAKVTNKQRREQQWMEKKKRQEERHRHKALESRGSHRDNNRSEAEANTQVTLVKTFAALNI

What is called IC50 is the midpoint of a concentration-inhibition curve. For `CC1(C)Cc2c(sc3nc(Cc4ccccc4)nc(SCC(=O)Nc4ccccc4)c23)CO1`, the IC50 was 6.75 µM.

In the case of `O=C(c1nnn(Cc2ccc(Cl)cc2)c1-n1cccc1)N1CCCC1`, the IC50 was > 50 µM (inactive).

As for `COc1ccccc1-c1nc2c3c(C)c(C)n(Cc4cccnc4)c3ncn2n1`, the IC50 was > 50 µM (inactive).

Regarding `O=C(CN1C(=O)C2CCCC2=Nc2ccccc21)Nc1cc(F)ccc1F` (stereo not given), the IC50 is 19 µM.

As to `COC(=O)C1C(c2ccc(OC)cc2)C2(C(=O)c3ccccc3C2=O)C2C=Cc3ccccc3N12` (stereo not given), the IC50 was > 50 µM (inactive).

As for `Cc1cc(O)c(=O)cc2c1C[C@H]1CC(C)(C)/C=C/C[C@@]3(C)Oc4cc(=O)c(O)cc(C)c4C[C@@H]3C[C@H](O)[C@]1(C)O2`, the IC50 was > 50 µM (inactive).

Take `COc1cc([C@@H]2c3cc4c(cc3C[C@@H]3COC(=O)[C@H]32)OCO4)cc(OC)c1OC`: the IC50 was 20.5 µM.

Turning to `O=C(CCCCn1c(=O)c2ccccc2n(Cc2ccccc2F)c1=O)NCCc1ccccc1`, the IC50 is 17 µM.

`O=C(CNC(=O)c1cccc(F)c1)Nc1nc2ccccc2[nH]1`: the IC50 was 35.4 µM.

As to `CC(=O)c1ccc(NC(=O)CC2C(=O)Nc3nc4ccccc4n32)cc1` (stereo not given), the concentration for half-maximal inhibition (IC50) was 37.2 µM.

For the compound `CN1C(=O)c2cc(NC(=O)c3ccccc3Cl)ccc2Oc2ccccc21`, the IC50 is > 50 µM (inactive).

Regarding `O=C(Nc1ccc(Cl)cc1F)c1cc(-c2ccccn2)n[nH]1`, the IC50 was > 50 µM (inactive).

As to `CC(C)c1cc(Nc2cccc(F)c2)n2nc(-c3cccnc3)nc2n1`, the IC50 was > 50 µM (inactive).

Take `N#Cc1cn(CC(=O)N2CCc3ccccc32)c2ccccc12`: the IC50 is > 50 µM (inactive).

With `Cc1ccc(-n2c(=O)c3ccccc3n(Cc3c(F)cccc3Cl)c2=O)cc1`, the IC50 was > 50 µM (inactive).

Regarding `Cc1c(CC(=O)N2CCN(c3ncccn3)CC2)c(=O)oc2cc(O)ccc12`, the IC50 was 34.1 µM.

Consider `O=C(Nc1cccc(F)c1)C1CCCN(S(=O)(=O)N2CCCCCC2)C1` (stereo not given), for which the IC50 was > 50 µM (inactive).

`CC1CCN(c2cc(-n3cnc(C(=O)N4CCCCC4)c3)ncn2)CC1`: the IC50 is > 50 µM (inactive).

Take `O=C(CSc1ncnc2c1oc1ccccc12)Nc1ccc2c(c1)OCCO2`: the IC50 was 34.5 µM.

On to `COc1cccc(NC(=O)Cc2sc(Nc3cc(C)cc(C)c3)nc2O)c1`, for which the half-maximal inhibitory concentration (IC50) was 22.4 µM.

For the compound `O=C(COc1ccc(F)cc1)Nc1cc(F)c2nc(N3CCOCC3)ccc2c1`, the IC50 was > 50 µM (inactive).

In the case of `CCCC(=O)c1c[nH]c(C(=O)NCc2ccc(F)cc2)c1`, the IC50 was 32.9 µM.

Consider `CCCCOc1ccc(C(=O)Nc2ccc3c(c2)CCC(=O)N3CCC)cc1`, for which the IC50 was > 50 µM (inactive).

`O=C(Nc1cccc(-c2nc3ccccc3[nH]2)c1)c1cc2ccccc2oc1=O`: the half-inhibitory concentration (IC50) is 22 µM.

`Cc1ccc(NC(=O)c2c3c(nc4ccccc24)CCCCC3)c(C)c1`: the IC50 was > 50 µM (inactive).

For the compound `Cc1ccc(/C=C/C(=O)Nc2ccc3c(c2)OCCO3)cc1`, the IC50 was > 50 µM (inactive).

As for `O=C1NCc2c1c1c3ccccc3[nH]c1c1[nH]c3ccccc3c21`, the IC50 was > 50 µM (inactive).

For `CC(=O)c1ccc(NC(=O)C2CCN(c3cncnc3N3CCCC3)CC2)cc1`, the IC50 was > 50 µM (inactive).

Regarding `O=C(COc1ncnc2ccccc12)Nc1ccc2c(c1)OC1(CCCC1)O2`, the IC50 was 46.2 µM.

Turning to `CCn1cc(-c2nc(-c3ccccc3)no2)c(=O)c2cc(F)ccc21`, the IC50 is 18 µM.

Take `COC(=O)c1sccc1NC(=O)COc1ccsc1C(=O)OC`: the IC50 is > 50 µM (inactive).

Turning to `O=C(NCc1ccccc1Cl)c1ccc(-c2nnc(-c3ccccc3)o2)cc1`, the IC50 was 5.57 µM.

Regarding `COc1ccc(NC(=O)CN2CCN(c3ccc(C(C)=O)cc3)CC2)cc1S(=O)(=O)N1CCCCC1`, the IC50 was > 50 µM (inactive).

Consider `COc1cccc(NC(=O)Nc2nccn(-c3ccc(F)cc3)c2=O)c1`, for which the IC50 is 49.2 µM.

With `Cc1nc(-c2ccccn2)sc1C(=O)Nc1ccc(C#N)cc1`, the IC50 was > 50 µM (inactive).

In the case of `NC(=O)c1ccc(NC(=O)Cc2cc(-c3ccc(Cl)cc3)on2)cc1`, the IC50 was > 50 µM (inactive).

`Cc1ccc2nc(CNc3ccc(F)cc3C)cc(=O)n2c1`: the IC50 was > 50 µM (inactive).

As for `CC(C)(C)C(=O)C1C2C(=O)N(c3ccc4c(c3)OCO4)C(=O)C2C2c3ccccc3C=CN12` (stereo not given), the IC50 was > 50 µM (inactive).

Turning to `Fc1cccc(-n2cc(-c3noc(-c4ccccn4)n3)nn2)c1`, the IC50 was 27 µM.

In the case of `Cc1cc(=O)n2c3c(c4c(cc13)c(CO)cc(=O)n4C)OC2`, the IC50 was > 50 µM (inactive).

Turning to `CCOc1ccccc1NC(=O)COc1cc(OC)ccc1C(=O)c1ccccc1`, the IC50 was > 5 µM (inactive).

As for `O=C(Nc1cccc(S(=O)(=O)N2CCCC2)c1)c1ccc2c(=O)n3c(nc2c1)CCCCC3`, the IC50 was > 50 µM (inactive).

Consider `COc1ccc2nc3c(cc2c1)c(=O)n(C)c1c3c(=O)n(-c2ccccc2)c(=O)n1-c1ccccc1`, for which the IC50 was > 50 µM (inactive).

Consider `CO/C1=C\C(C)=C/[C@@H](C)[C@@H](O)[C@@H](C)C/C(C)=C/C=C/[C@H](OC)[C@@H]([C@@H](C)[C@@H](O)[C@H](C)[C@@]2(O)C[C@@H](OC(=O)/C=C/C(N)=O)[C@H](C)[C@@H](C(C)C)O2)OC1=O`, for which the IC50 is > 50 µM (inactive).

For the compound `O=C(/C=C/c1ccc(F)cc1)N1CCc2ccccc2C1`, the IC50 is > 50 µM (inactive).

Take `COc1ccc(NC(=O)c2nnn(-c3cccc(C)c3)c2C)cc1`: the IC50 is > 50 µM (inactive).

Regarding `Cc1ccccc1NC(=O)C(C)n1c(=O)cc(-c2ccccc2)c2c(C)nn(C)c21` (stereo not given), the IC50 is 38 µM.

As for `CCCn1c(=O)n(CC(=O)c2ccccc2F)c2c(C(N)=O)nc(-c3ccco3)nc21`, the IC50 is > 50 µM (inactive).

Turning to `CC(C)(C)c1ccc(C(=O)Nc2ccc(Oc3cccnc3)nc2)cc1`, the IC50 was > 50 µM (inactive).

Regarding `CCOc1ccc(NC(=O)COc2cccc3c2CCN(CC)C3=O)cc1`, the IC50 was > 50 µM (inactive).

Consider `O=C1C=C(O)c2c(O)cccc2C1=O`, for which the 50% inhibitory concentration (IC50) was 25.5 µM.

`COc1cccc(N2CCN(C(=O)c3cc(NC(C)=O)cc4nc(C)ccc34)CC2)c1`: the IC50 was > 50 µM (inactive).

On to `COc1ccc(NC(=O)COc2cc(CSc3ccccc3)ncc2OC)cc1`, for which the IC50 is > 50 µM (inactive).

For `O=c1[nH]c(C2CCN(S(=O)(=O)c3ccc(S(=O)(=O)NC4CCCCC4)cc3)CC2)nc2c1nnn2Cc1c(Cl)cccc1Cl`, the IC50 is 18.5 µM.

For the compound `Cc1ccc(NC(=O)C2CCN(c3cncnc3N3CCCC3)CC2)cc1`, the IC50 is > 50 µM (inactive).

For `Nc1nc(OCc2ccccc2)c2[nH]c(/C=C/c3cccs3)nc2n1`, the IC50 was 29 µM.

For the compound `COc1ccccc1-c1nc(Cn2nnc(C(=O)Nc3cc(C)cc(C)c3)c2N)c(C)o1`, the IC50 was > 50 µM (inactive).

`Cn1c(=O)[nH]c(=O)c2c1nc1n(CCc3ccccc3)c(-c3ccccc3)cn21`: the IC50 was > 50 µM (inactive).

Consider `CC(=O)c1cccc(NC(=O)c2ccc3[nH]c4c(c3c2)CC(C)CC4)c1` (stereo not given), for which the IC50 was > 50 µM (inactive).

In the case of `Cc1nc(-c2cccc(NC(=O)c3ccccc3Cl)c2)no1`, the IC50 is > 50 µM (inactive).

Turning to `O=C(CSc1ncnc2c1oc1ccccc12)NC1CCCC1`, the IC50 was 24.4 µM.

Consider `O=C(NCc1cccnc1)c1cnn2c(C(F)(F)F)cc(-c3ccc(F)cc3)nc12`, for which the IC50 was > 50 µM (inactive).

For `CC(=O)N1CCc2cc(S(=O)(=O)NCCC(=O)Nc3cccc(C)c3C)ccc21`, the IC50 is 23.3 µM.

In the case of `NS(=O)(=O)c1cc(C(=O)OCC(=O)c2ccc3c(c2)OCCO3)ccc1Cl`, the IC50 is > 50 µM (inactive).

For `Cn1c(CCN2CCCC2)nc2cc(NS(=O)(=O)c3ccccc3)ccc21`, the IC50 is > 50 µM (inactive).

Take `CC12c3ccc4c(c3C(=O)c3occ(c31)C(=O)CC2O)CCC4=O` (stereo not given): the IC50 is > 50 µM (inactive).

Regarding `COc1ccc(NC(=O)c2ccnc(Nc3ccc(OC)cc3)c2)cc1`, the IC50 was > 50 µM (inactive).

As to `COc1c2nc3ccccc3oc-2cc(=O)c1OC`, the IC50 is > 50 µM (inactive).

For `O=C(OCc1ccc(Br)cc1)c1ccc2ccccc2n1`, the IC50 was > 50 µM (inactive).

Take `COc1cc(O)c2c(c1)C1=CC(=O)C(O)=C[C@]1(C)OC2=O`: the IC50 is 29.9 µM.

`O=C(CSc1nc2cc(S(=O)(=O)Nc3ccccc3Cl)ccc2o1)Nc1ccc(N2CCOCC2)cc1`: the IC50 is > 50 µM (inactive).

In the case of `O=C1C=CC(O)C2C1CC13SSC4(CC5C(=O)C=CC(O)C5N4C1=O)C(=O)N23` (stereo not given), the IC50 is > 50 µM (inactive).

Turning to `O=C(Nc1cc(F)c2nc(N3CCOCC3)ccc2c1)C1CC1`, the IC50 is > 50 µM (inactive).

On to `O=C(OCc1cccc(Cl)c1)c1ccc2ccccc2n1`, for which the IC50 was > 50 µM (inactive).

As to `O=S(=O)(Cc1nnc(-c2ccccc2C(F)(F)F)o1)c1ccc(Cl)cc1`, the IC50 is > 50 µM (inactive).

Regarding `Cc1ccc(NC(=O)CCC(=O)Nc2ccc3nc(N4CCCCC4)cc(C)c3c2)c(Br)c1`, the IC50 was 49.8 µM.

As to `Cc1cc(C(=O)Nc2ccc3c(c2)OCCO3)no1`, the IC50 is > 50 µM (inactive).

As for `CO[C@H]1CC[C@H](O)c2c1oc1c3c4c(c(O)c1c2=O)-c1c(cc2c(Cl)c(C)n(N)c(=O)c2c1O)C[C@@H]4OCO3`, the IC50 is 26.6 µM.

As to `NS(=O)(=O)c1cccc(NS(=O)(=O)c2ccc(/C=C/C(=O)OCC(=O)c3ccc(Br)cc3)cc2)c1`, the IC50 is > 50 µM (inactive).

Consider `O=C(Cc1cccs1)Nc1cc(F)c2nc(N3CCOCC3)ccc2c1`, for which the IC50 is > 50 µM (inactive).

With `CC1(O)CC(=O)c2c(cc3cc(O)cc(O)c3c2O)C1` (stereo not given), the IC50 is 0.188 µM.

As to `Nc1c(-c2ccc(Cl)cc2)cnc2cc(-c3ccc(Cl)c(Cl)c3)nn12`, the IC50 is 16.1 µM.

For the compound `CC1CCN(c2nnc(-c3nc(C4CC4)no3)c3ccccc23)CC1`, the IC50 was > 50 µM (inactive).

On to `COc1ccc(C(=O)Nc2ccc3c(c2)C(=O)N(C)c2ccccc2O3)cc1`, for which the IC50 was > 50 µM (inactive).

Turning to `O=C(/C=C/c1ccccc1)N1CCN(C2=NS(=O)(=O)c3ccccc32)CC1`, the IC50 is > 50 µM (inactive).
